Test results taken from ChEMBL document CHEMBL1141305, “Daphnipaxianines A-D, alkaloids from Daphniphyllum paxianum” (J Nat Prod, 2007).
The source made the active and inactive calls.

Legend:
Assay type in all cases: functional, cell-based
HCT-116 [1] = test: Cytotoxicity against human Bax deficient HCT116 cells
MEF = test: Cytotoxicity against mouse Bax and Bak deficient MEF cells
HCT-116 [2] = test: Cytotoxicity against human HCT116 cells

Measured: Activity

C[C@@H]1CN2C[C@H]3CC[C@]4(O)CC(=O)C5=C4[C@@]4(CC5)C(=O)[C@@H]1C[C@@H]2[C@@]34C
inactive: all assays above

C[C@@H]1CN2C[C@H]3CC[C@@]4(O)CC(=O)C5=C4[C@@]4(CC5)C(=O)[C@@H]1C[C@@H]2[C@@]34C
inactive: all assays above

C[C@@H]1CN2C[C@H]3CCC4=C5[C@](O)(CC4)CC[C@@]54C(=O)[C@@H]1C[C@@H]2[C@@]34C
inactive: all assays above

COC(=O)[C@@H]1C[C@]23CN4CC(CCC5(CCC1C52)C4)[C@@]31CC[C@](OC)(C(C)C)OC1 (some centres not stated)
inactive: all assays above
